Read-outs that look alike come from different tables or passages of the source.
Assays:
[1] = molecular target: apotransferrin (Homo sapiens, UniProt P02787); settings: apotransferrin 200 mg/dL, 37° C. 30 min
Method: In order to evaluate binding capacity of the metal ion to apotransferrin, transferrin binding capacity (Unsaturated Iron-Binding Capacity, UIBC) was measured as follows depending on the concentration of iron ion (ferric iron, FeIII+).
Specifically, in order to prepare iron ion aqueous solutions, 3.6 g of FeCl3 (Sigma Aldrich, USA) was dissolved in 400 ml of distilled water with stirring for 20 min or longer, and then the pH of the resulting solution was adjusted to 9 with continuous stirring while a 5M NaOH solution was added dropwise. When a red brownish precipitate appeared, it was stirred at 90° C. for 2 hr and was then centrifuged at 5,000 rpm for 5 min, thus obtaining a ferric hydroxide precipitate, which was then washed with distilled water and dried. The ferric hydroxide in powder form was dissolved in distilled water, yielding ferric hydroxide solutions having concentrations of […]. Each of the ferric hydroxide solutions at individual concentrations was added with 200 mg/dL of apotransferrin (Sigma Aldrich, USA), and mixed in a vortex for 1 min, followed by allowing the reaction between apotransferrin and iron ion to progress at 37° C. for 30 min.
In order to measure the unsaturated iron-binding capacity (UIBC) of apotransferrin, a Ferrozine colorimetric method was used. As the iron standard, ferrous chloride was prepared at a concentration of […] in hydroxylamine hydrochloride, and the reaction solution of apotransferrin and iron was prepared as a test group. Specifically, 2 ml of 0.5M Tris buffer (pH 8) was aliquoted into all test tubes. The blank test tube was filled with 1 ml of distilled water, the standard test tube was filled with 0.5 ml of distilled water and 0.5 ml of the iron standard, and the experimental test tube was filled with 0.5 ml of the reaction solution of apotransferrin and iron ion and 0.5 ml of the iron standard, followed by mixing in a vortex for 1 min.
A spectrophotometer was zeroed at 560 nm, and the absorbance A1 was measured. Next, a 16.6 mM Ferrozine hydroxylamine hydrochloride solution was placed in an amount of […] in each of the test tubes, followed by mixing in a vortex for 1 min. All the test tubes were cultured at 37° C. for 10 min, and the absorbance A2 at 560 nm was measured. The absorbance A560 at 560 nm was calculated by subtracting the absorbance A1 from the absorbance A2.
The unsaturated iron-binding capacity (UIBC) was calculated as follows. UIBC=[standard conc.]−[standard conc.]×Test A560/Standard A560

[2] = tested on: NCI-H460-luc2 tumor xenograft; assay: Thermal cancer therapy with sensitizer, bioluminescence imaging of tumor size in the last week (Example 1, FIG. 12); format: in vivo, BALB/c athymic nude mice; settings: i.v. 1 mg/kg metal ion-bound material or 20 mg/kg transferrin, 100 W 10 min, three times per week, four weeks
Method: Next, the potential to treat cancer was evaluated using the metal ion-bound material as the sensitizer upon thermal therapy. A lung cancer cell line NCI-H460-luc2 ([…] Sciences) was cultured, and 5×10^6 cells were subcutaneously injected into 6 to 8-week-old female BALB/c athymic nude mice (Damul Science), and the mice were bred for about 10 days so as to grow tumorous tissue to a size of 100 mm^3 or more, yielding the tumor xenograft animal models for the evaluation of cancer treatment effects. […] After 4 hr, thermal treatment was performed three times per week for a total of four weeks using a radio-frequency hyperthermia system (EHY-2000, Oncothermia) with an energy dose of 100 W for 10 min. As such, a non-treated group and a saline-treated group were set as controls. In order to analyze the size of tumorous tissue in the last week, bioluminescence imaging was performed. For bioluminescence of a luciferase-expressing cancer cell line NCI-H460-luc2, D-luciferin (Xenogen, USA) was intraperitoneally injected at a concentration of 150 mg luciferin/kg/d into the mice, the mice were anesthetized through inhalation using a mixture of isoflurane gas and oxygen, and luminous cancer cells were subjected to overlap photographing using a Xenogen imager (IVIS 200), and analyzed using Igor Pro imaging analysis software.

[3] = tested on: NCI-H460-luc2 tumor xenograft; assay: Thermal cancer therapy with repeated sensitizer dosing, weekly bioluminescence imaging of tumor size over four weeks (Example 1, FIG. 13); format: in vivo, BALB/c athymic nude mice; settings: i.v. three times per week, 0.1 ml of 0.2 mg/ml (iron dextran, iron sucrose) or 5 mg/ml (transferrin); 100 W 30 min or more; four weeks
Method: After 4 hr, thermal treatment for 30 min or more using a radio-frequency hyperthermia system (EHY-2000, Oncothermia) with an energy dose of 100 W was performed for a total of four weeks, and the size of tumorous tissue was monitored every week. […] In the group to which transferrin was administered, 0.1 ml of the transferrin aqueous solution having a concentration of 5 mg/ml was intravenously injected. As such, the non-treated group and the saline-treated group were used as controls.
In order to analyze the size of tumorous tissue, bioluminescence imaging was regularly performed at an interval of one week, and analysis was performed using Igor Pro imaging analysis software.

[4] = In vivo accumulation of metal ion in normal and tumorous tissue, ICP-MS (Test Example 5); parameters: species or system BALB/c athymic nude mice; concentration of iron ion (ICP-MS): unit not given here; settings: 1 mg/kg i.v., after 24 hr
Method: In order to evaluate the accumulation of the administered metal ion in tumorous tissue through in vivo animal testing, tumor xenograft animal models were manufactured as follows. Specifically, a lung cancer cell line NCI-H460-luc2 (Califer Life Sciences) was cultured, and 5×10^6 cells were subcutaneously injected into 6- to 8-week-old female BALB/c athymic nude mice (Damul Science), and the mice were bred for about 10 days so as to grow tumorous tissue to a size of 100 mm^3 or more, yielding the tumor xenograft animal models.
After 24 hr, in order to carry out inductively coupled plasma mass spectrometry (ICP-MS), 1 g of each tissue was ground using a tissue grinder in an ice bath, and 1 ml of the ground solution was dried at −60° C. in a vacuum of 7 μmHg for 24 hr. The dried powder was added with 2 ml of 6N HCl, placed in a sealed glass reactor, and cultured in an incubator at 55° C. After 12 hr or longer, each sample was mixed in a vortex and then centrifuged at 1,000 rpm for 15 min, and the supernatant was dried with nitrogen gas, added with 1 ml of 0.01N HCl, mixed in a vortex, and then centrifuged at 1,000 rpm for 15 min. The supernatant was recovered, and the concentrations of the metal ions in the normal tissue and the tumorous tissue were measured through ICP-MS (Varian 800-MS, Palo Alto, US).

[5] = tested on: NCI-H460-luc2 tumor xenograft; assay: Temperature of normal and tumorous tissue of tumor xenograft mice on application of electromagnetic waves after sensitizer (Example 1, FIGS. 9 to 11); format: in vivo, BALB/c athymic nude mice; settings: i.v. iron sucrose 1 mg/kg or transferrin 20 mg/kg, 4 hr after administration, 100 W for 3 min
Method: To this end, a lung cancer cell line NCI-H460-luc2 (Califer Life Sciences) was cultured, and 5×10^6 cells were subcutaneously injected into 6 to 8-week-old female BALB/c athymic nude mice (Damul Science), and the mice were bred for about 10 days so as to grow tumorous tissue to a size of 100 mm^3 or more, yielding the tumor xenograft animal models for the evaluation of cancer treatment effects.
As the sensitizing composition for thermal therapy, iron sucrose was prepared in the same manner as in Test Example 1, and 0.1 ml of the iron sucrose aqueous solution having a concentration of 0.2 mg/ml was intravenously injected into the established tumor xenograft mice so as to reach a dose of 1 mg/kg.
As the sensitizing composition for thermal therapy, “iron ion-bound apotransferrin” (transferrin) was prepared in the same manner as in Test Example 3, and 0.1 ml of the transferrin aqueous solution having a concentration of 5 mg/ml was intravenously injected into the established tumor xenograft mice so as to reach a dose of 20 mg/kg.
As the control, saline was administered. 4 hr after administration, electromagnetic waves were applied in an energy dose of 100 W for 3 min using a radio-frequency hyperthermia system (EHY-2000, Oncothermia), and the temperatures of normal tissue and tumorous tissue were measured using a thermal imaging device (E60, Korea Rental, Korea).

Chain of apotransferrin (P02787 20-698): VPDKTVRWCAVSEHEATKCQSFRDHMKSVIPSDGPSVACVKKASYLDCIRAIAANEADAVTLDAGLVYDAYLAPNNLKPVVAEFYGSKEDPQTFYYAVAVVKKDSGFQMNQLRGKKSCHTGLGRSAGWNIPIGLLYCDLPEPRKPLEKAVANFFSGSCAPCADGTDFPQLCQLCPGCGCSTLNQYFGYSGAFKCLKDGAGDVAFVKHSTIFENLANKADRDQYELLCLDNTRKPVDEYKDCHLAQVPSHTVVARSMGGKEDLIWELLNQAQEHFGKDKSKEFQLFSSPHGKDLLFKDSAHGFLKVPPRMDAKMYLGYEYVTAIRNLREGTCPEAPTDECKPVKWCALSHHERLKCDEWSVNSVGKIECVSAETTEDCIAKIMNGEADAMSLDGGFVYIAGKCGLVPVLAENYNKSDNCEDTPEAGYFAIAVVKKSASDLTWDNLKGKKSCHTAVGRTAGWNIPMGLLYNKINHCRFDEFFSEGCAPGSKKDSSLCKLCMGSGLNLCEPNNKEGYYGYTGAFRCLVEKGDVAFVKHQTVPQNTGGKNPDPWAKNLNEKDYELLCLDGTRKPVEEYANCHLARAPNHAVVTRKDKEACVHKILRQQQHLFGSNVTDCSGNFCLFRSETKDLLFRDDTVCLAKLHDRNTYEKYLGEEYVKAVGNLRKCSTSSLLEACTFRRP

Question: Which UIBC ([1]; Iron conc. 10 μg/dL) does the source give for `[Fe+3].[OH-].[OH-].[OH-]` [iron ion, ferric hydroxide] here?
Answer: Its UIBC is 498 µg/dL.

Question: And the UIBC ([1]; Iron conc. 50 μg/dL)?
Answer: The UIBC was 481 µg/dL.

Question: What about the UIBC ([1]; Iron conc. 200 μg/dL) of the same molecule?
Answer: Its UIBC is 332 µg/dL.

Question: And the UIBC ([1]; Iron conc. 500 μg/dL)?
Answer: Its UIBC is 119 µg/dL.

Question: For Iron dextran [reference compound], which “cancer treatment effects through thermal therapy (size of tumorous tissue, bioluminescence imaging)” value [2] is on record?
Answer: Its value is “excellent”.

Question: And the “growth of cancer upon thermal treatment using electromagnetic waves (bioluminescence imaging)” value [3]?
Answer: The value was “significantly reduced”.

Question: What does the source list for “ferric hydroxide sucrose complex [Iron sucrose]”?
Answer: Fold increase of iron ion vs saline ([4]; Brain): 2.05; concentration of iron ion (ICP-MS) ([4]; Brain): 46.2 ± 8.6; Fold increase of iron ion vs saline ([4]; Heart): 3.08; concentration of iron ion (ICP-MS) ([4]; Heart): 99.2 ± 2.8; Fold increase of iron ion vs saline ([4]; Kidney): 1.05; concentration of iron ion (ICP-MS) ([4]; Kidney): 59.8 ± 4.1; Fold increase of iron ion vs saline ([4]; Liver): 2.26; concentration of iron ion (ICP-MS) ([4]; Liver): 168.2 ± 37.3; Fold increase of iron ion vs saline ([4]; Muscle): 0.98; concentration of iron ion (ICP-MS) ([4]; Muscle): 28.9 ± 22.1; Fold increase of iron ion vs saline ([4]; Stomach): 2.99; concentration of iron ion (ICP-MS) ([4]; Stomach): 83.1 ± 27.7; concentration of iron ion (ICP-MS) ([4]; Tumor): 44.4 ± 3.9; Fold increase of iron ion vs saline ([4]; Tumor, 1 mg/kg): ≥ 3.3; Fold increase of iron ion vs saline ([4]; Tumor, listed as Fe-Sucrose, 1 mg/kg): 3.29; changes in the temperature before and after the application of electromagnetic waves ([5]; normal tissue): 1 °C; changes in the temperature before and after the application of electromagnetic waves ([5]; tumorous tissue): 1.9 °C; cancer treatment effects through thermal therapy (size of tumorous tissue, bioluminescence imaging) [2]: excellent; growth of cancer upon thermal treatment using electromagnetic waves (bioluminescence imaging) [3]: significantly reduced

— patent US11752210B2, “Sensitizing composition using electromagnetic waves for thermal therapy of cancers, and cancer therapy using same” (JINIS CO., LTD., priority 2013, dated 2023)
